US4698327A, “Novel glycopeptide derivatives” (priority 1986, dated 1987)
In brackets after ≈: the same amount, converted by molar mass.

What was measured:
Streptococcus pyogenes = Streptococcus pyogenes infection in mice; two doses, administered subcutaneously
[1] = tested on: Staphylococcus aureus X400; experiment: MIC, standard agar-dilution assay; format: cell-based
[2] = tested on: Klebsiella pneumoniae X26; experiment: MIC, standard agar-dilution assay; format: cell-based
[3] = tested on: Haemophilus influenzae 76; experiment: MIC, standard agar-dilution assay; format: cell-based
[4] = tested on: Klebsiella pneumoniae X68; experiment: MIC, standard agar-dilution assay; format: cell-based
[5] = tested on: Haemophilus influenzae C.L.; experiment: MIC, standard agar-dilution assay; format: cell-based
[6] = tested on: Streptococcus pneumoniae Park 1; format: cell-based; details: agar dilution
[7] = tested on: Streptococcus sp. group D 2041; experiment: MIC, standard agar-dilution assay; format: cell-based
Staphylococcus aureus = Staphylococcus aureus infection in mice; two doses, administered subcutaneously
Escherichia coli EC14 = experiment: MIC, standard agar-dilution assay; format: cell-based
[8] = tested on: Staphylococcus aureus V41; experiment: MIC, standard agar-dilution assay; format: cell-based
[9] = tested on: Streptococcus pyogenes C203; experiment: MIC, standard agar-dilution assay; format: cell-based
Streptococcus pneumoniae = Streptococcus pneumoniae infection in mice; two doses, administered subcutaneously
[10] = tested on: Staphylococcus aureus NRRL B313; details: agar dilution
[11] = tested on: Streptococcus faecium ATCC 9790; experiment: MIC, standard agar-dilution assay; format: cell-based
[12] = tested on: Staphylococcus aureus S13E; format: cell-based; details: agar dilution
[13] = tested on: Staphylococcus epidermidis EPI1; format: cell-based; details: agar dilution
Escherichia coli TEM = experiment: MIC, standard agar-dilution assay; format: cell-based
[14] = tested on: Klebsiella pneumoniae KAE; experiment: MIC, standard agar-dilution assay; format: cell-based
Escherichia coli N10 = experiment: MIC, standard agar-dilution assay; format: cell-based
[15] = tested on: Staphylococcus epidermidis 222; experiment: MIC, standard agar-dilution assay; format: cell-based

Structure (SMILES) | ED50 (Streptococcus pyogenes) [mg/kg/2] | MIC [1] [µg/mL] | MIC [2] [µg/mL] | MIC [3] [µg/mL] | MIC [4] [µg/mL] | MIC [5] [µg/mL] | MIC [6] [µg/mL] | MIC [7] [µg/mL] | ED50 (Staphylococcus aureus) [mg/kg/2] | MIC (Escherichia coli EC14) [µg/mL] | MIC [8] [µg/mL] | MIC [9] [µg/mL] | ED50 (Streptococcus pneumoniae) [mg/kg/2] | MIC [10] [µg/mL] | MIC [11] [µg/mL] | MIC [12] [µg/mL] | MIC [13] [µg/mL] | MIC (Escherichia coli TEM) [µg/mL] | MIC [14] [µg/mL] | MIC (Escherichia coli N10) [µg/mL] | other results
CCCCCCCCCCCCNC1(C)CC(OC2C(Oc3c4cc5cc3Oc3ccc(cc3Cl)C(O)C3NC(=O)C(NC(=O)C5NC(=O)C(CC(N)=O)NC(=O)C(NC(=O)C(CC(C)C)NC)C(O)c5ccc(c(Cl)c5)O4)c4ccc(O)c(c4)-c4c(O)cc(O)cc4C(C(=O)O)NC3=O)OC(CO)C(O)C2O)OC(C)C1O (stereo not drawn) [Compound 1, N^van --(n-dodecyl)vancomycin] | 0.31 | 0.25 (≈ 0.155 µM) | > 128 | > 128 | > 128 | > 128 | 0.25 (≈ 0.155 µM) | 0.125 (≈ 0.0773 µM) | > 5 | > 128 | 0.25 (≈ 0.155 µM) | 0.125 (≈ 0.0773 µM) | 0.42 | 0.25 (≈ 0.155 µM) | 0.25 (≈ 0.155 µM) | 0.25 (≈ 0.155 µM) | 0.5 (≈ 0.309 µM) | > 128 | > 128 | > 128 | –
CCCCCCCCCCNC1(C)CC(OC2C(Oc3c4cc5cc3Oc3ccc(cc3Cl)C(O)C3NC(=O)C(NC(=O)C5NC(=O)C(CC(N)=O)NC(=O)C(NC(=O)C(CC(C)C)NC)C(O)c5ccc(c(Cl)c5)O4)c4ccc(O)c(c4)-c4c(O)cc(O)cc4C(C(=O)O)NC3=O)OC(CO)C(O)C2O)OC(C)C1O (stereo not drawn) [Compound 2, N^van -(n-decyl)vancomycin] | 1.6 | 0.25 (≈ 0.157 µM) | > 128 | 128 (≈ 80.5 µM) | > 128 | 128 (≈ 80.5 µM) | 0.125 (≈ 0.0786 µM) | 0.25 (≈ 0.157 µM) | 1.8 | > 128 | 0.25 (≈ 0.157 µM) | 0.06 (≈ 0.0377 µM) | 0.51 | – | 0.25 (≈ 0.157 µM) | 0.25 (≈ 0.157 µM) | 0.25 (≈ 0.157 µM) | > 128 | > 128 | > 128 | MIC [15]: 0.25 µg/mL (≈ 0.157 µM)
CCCCCCCCNC1(C)CC(OC2C(Oc3c4cc5cc3Oc3ccc(cc3Cl)C(O)C3NC(=O)C(NC(=O)C5NC(=O)C(CC(N)=O)NC(=O)C(NC(=O)C(CC(C)C)NC)C(O)c5ccc(c(Cl)c5)O4)c4ccc(O)c(c4)-c4c(O)cc(O)cc4C(C(=O)O)NC3=O)OC(CO)C(O)C2O)OC(C)C1O (stereo not drawn) [Compound 7, N^van --(n-octyl)vancomycin] | 0.98 | 0.25 (≈ 0.16 µM) | > 128 | 32 (≈ 20.5 µM) | > 128 | 32 (≈ 20.5 µM) | – | 0.5 (≈ 0.32 µM) | 3.4 | > 128 | 0.25 (≈ 0.16 µM) | 0.125 (≈ 0.0801 µM) | 0.44 | 0.25 (≈ 0.16 µM) | 0.25 (≈ 0.16 µM) | 0.25 (≈ 0.16 µM) | 1 (≈ 0.64 µM) | > 128 | > 128 | > 128 | MIC [15]: 0.5 µg/mL (≈ 0.32 µM)
CCCCCCCCCNC1(C)CC(OC2C(Oc3c4cc5cc3Oc3ccc(cc3Cl)C(O)C(NC(=O)C(CC(C)C)N(C)CCCCCCCCC)C(=O)NC(CC(N)=O)C(=O)NC5C(=O)NC3C(=O)NC(C(=O)NC(C(=O)O)c5cc(O)cc(O)c5-c5cc3ccc5O)C(O)c3ccc(c(Cl)c3)O4)OC(CO)C(O)C2O)OC(C)C1O (stereo not drawn) [Compound 6, N^van, N^leu --di(n-nonyl)vancomycin] | – | 1 (≈ 0.588 µM) | > 128 | > 128 | > 128 | > 128 | 2 (≈ 1.18 µM) | 2 (≈ 1.18 µM) | – | > 128 | 1 (≈ 0.588 µM) | 1 (≈ 0.588 µM) | – | 1 (≈ 0.588 µM) | 1 (≈ 0.588 µM) | 2 (≈ 1.18 µM) | 4 (≈ 2.35 µM) | > 128 | > 128 | > 128 | MIC [15]: 2 µg/mL (≈ 1.18 µM)
